{
  "source": "patent US7452869B2",
  "about": "“NIP3 family of proteins” (University of Manitoba, priority 2000, dated 2008)",
  "key": {"[1]": {"system": "caspase 3-like proteases", "assay": "caspase activation, colorigenic cleavage of Ac-DEVD-pNA by lysates of transfected 293T cells", "format": "biochemical", "conditions": "293T lysates harvested 1 to 36 hours posttransfection, versus untransfected controls", "protocol": "Lysates were collected from 293T cells, transiently transfected via the CaP04 method (Ray, R., et al., 1999), at the indicated times. Aliquots of these lysates were run under Laemmli sodium dodecyl sulfate-polyacrylamide gel electrophoresis (SDS-PAGE) conditions and immunoblotted with mouse monoclonal anti-PARP. Results were visualized with an enhanced chemiluminescence system (Amersham Pharmacia Biotech, Amersham, U. K.). Transfected 293T cells were also assayed for caspase cleavage via colorigenic cleavage of the peptide Ac-DEVD-pNA (Biomol, Plymouth Meeting, Pa.), according to the conditions outlined by Quignon et al. (Scaffidi, C., et al., 1998), using 100 mM peptide. Where appropriate, samples were preincubated with 500 nM Ac-DEVD-fmk for 30 minutes at room temperature. Data were acquired on a Multiskan MCC/340 (Titertek) plate reader at 405 nm."}, "[2]": {"system": "PT pore", "assay": "mitochondrial Dcm (DiOC6), ROS production (HE) and PI staining by flow cytometry in BNIP3-transfected 293T cells", "format": "cell-based", "conditions": "293T cells", "protocol": "Changes in mitochondrial function were determined by incubating 10 6 293T cells, transiently transfected via the CaP04 method, with either 1 mM JC-1, 40 nM DiOC6, or 2 mM dihydroethidium (HE) (all from Molecular Probes, Inc.) for 30 minutes at 37° C. in Hanks' balanced salt solution (Gibco-BRL). Cells were scored using a FACScalibur flow cytometer (Becton-Dickinson, San Jose, Calif.), and data were analyzed on Celiquest software, version 3.1 (Becton-Dickinson). Controls were performed in the presence or absence of […] mClCCP (Sigma) or an excess of 30% H2 02. For inhibition experiments, cyclosporin A (Sigma) or bongkrekic acid (a gift from J. A. Duine, Delft University, Delft, The Netherlands) was added 2 hours prior to transfection. All cells were harvested 8 hours after transfection and stained with 40 nM DiOC6, 2 mM HE, or 1 mg of propidium iodide (PI) (Sigma) per ml. In all cases, samples were gated to exclude cellular debris."}, "[3]": {"system": "MCF-7 cells", "assay": "cytochrome c release by indirect immunofluorescence, MCF-7", "format": "cell-based", "protocol": "(§1) Mitochondria were isolated from CaP04-transfected 293T cells using 70 strokes (tight pestle) in a 1-ml Dounce homogenizer (Wheaton) in […] of CFS buffer as previously described (Thornberry, N. A., et al., 1998). Mitochondria were resuspended in H buffer (Thornberry, N. A., et al., 1998). Aliquots of […] of protein were analyzed on Laemmli SDS-15% PAGE gels and immunoblotted with anticytochrome c monoclonal antibody. Equal loading was ensured by probing the same blot with monoclonal antiactin. Results were visualized with enhanced chemiluminescence. Cytochrome c release was also determined via indirect immunofluorescence of transfected MCF-7 and 293T cells. Briefly, cells grown on coverslips were costained with Cy3-conjugated mouse anti-cytochrome c monoclonal antibody and an appropriate tag (HA for BNIP3 and FLAG for tBID), which was visualized with FITC-conjugated goat anti-rabbit IgG. Cells were also stained with Hoechst dye to determine apoptotic nuclear morphology. No fewer than 200 cells were scored for each sample. Fluorescence was visualized and captured using a Zeiss axiophot microscope equipped with a cooled charge-coupled device camera."}, "[4]": {"system": "293T cells", "assay": "cytochrome c release by indirect immunofluorescence, 293T", "format": "cell-based", "protocol": "as §1"}, "[5]": {"target": "T1, BNIP3 (Homo sapiens, UniProt Q12983)", "T1 construct": "a pcDNA3-BNIP3 plasmid encoding the full length of BNIP3; expressed in transfected cells", "T1 sequence (Q12983 whole entry)": "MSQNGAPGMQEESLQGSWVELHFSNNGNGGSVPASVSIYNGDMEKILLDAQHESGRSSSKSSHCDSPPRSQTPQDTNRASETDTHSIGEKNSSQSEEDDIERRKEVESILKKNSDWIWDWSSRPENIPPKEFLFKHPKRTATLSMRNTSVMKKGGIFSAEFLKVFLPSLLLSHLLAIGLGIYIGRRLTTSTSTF", "assay": "BNIP3 induced cell death by exclusion of propidium iodide, co-transfection of BNIP3 DTM plasmid (FIG. 13)", "format": "cell-based", "conditions": "1.0 to 1.0 μg plasmid ratio BNIP3 DTM to BNIP3", "protocol": "Increasing concentrations of BNIP3 DTM plasmid (0.25 to 1.0 μg) were added to a constant amount of BNIP3 (1.0 μg). Cell death was determined by exclusion of propidium iodide. […] The BNIP3 DTM mutant contains amino acids 1-163, which is a deletion of the C-terminus of the protein that contains the transmembrane domain."}, "[6]": {"system": "primary hippocampal neurons", "assay": "primary hippocampal neurons transfected with BNIP3 plasmids, DNA condensation and survival", "format": "cell-based, rat", "conditions": "for BNIP3-positive neurons showing DNA condensation / DNA damage: transiently transfected hippocampal neurons", "protocol": "Transfection of cells was performed on day four in culture with LipofectAMINE 2000 […] according to manufacturer's protocol. Cells were transfected with a pcDNA3-BNIP3 plasmid encoding the full length of BNIP3 and a pcDNA3-BNIP3-163 plasmid that encodes a truncated form (the first 163 amino acids) of BNIP3 that lacks the functional transmembrane domain. Cells were used after 9 days in culture for excitotoxicity experiments. Neuronal cell death was assessed using trypan blue exclusion, morphological changes, and Hoescht 33342 staining. Morphological characteristics were examined on a Nikon Eclipse TE200 microscope and fluorescence was examined on a Zeiss Axioskop 2.\nIn vitro cell death was estimated using trypan blue exclusion. Cells were incubated in 0.4% trypan blue solution for 30 minutes and then counted on a bright-field microscope. Nonviable cells were distinguished by their dark blue staining. To examine nuclear morphology, nuclear DNA was stained with Hoescht 33342. DNA fragmentation was detected by TUNEL using an in situ cell death detection kit with fluorescein. Statistical analyses were by ANOVA with Tukey's post-test."}, "[7]": {"system": "ventricular myocytes", "assay": "cell viability of ventricular myocytes, calcein acetoxymethyl ester / ethidium homodimer-1", "format": "cell-based", "conditions": "cells expressing BNIP3ΔTM", "protocol": "Ventricular myocytes were isolated from 1- to 2-day-old Sprague-Dawley rats (University of Manitoba, Winnipeg, Canada) and submitted to primary culture as reported (Kirshenbaum and Schneider, 1995). Myocytes were subjected to hypoxia for 24 hours in an air-tight chamber continually gassed with 95% N2-5% CO2, as previously reported (Moissac et al., 2000; Long et al., 1997; Tanaka et al., 1994). Adult rat hearts (n=3) were excised from adult rats (250 to 300 g) and subjected to global hypoxia for 1 hour on a modified Langendorff perfusion system with buffer continually gassed with 95% N2-5% CO2, as previously reported (Kirshenbaum, 1993). Heart failure was induced in rats by surgical ligation of the left anterior descending coronary artery, as previously reported (Dixon et al., 1992). Non-failing sham control hearts and those with heart failure were excised from animals 8 weeks after myocardial infarction. Hearts (n=3) were dissected to remove the infarcted scar tissue, and the left ventricular free wall was homogenized and analyzed by Western blot for BNIP3 expression. Animals were handled according to guidelines established by the University of Manitoba and Canadian Council on Animal Care.\nThe cDNAs for BNIP3 full-length (BNIP3) and carboxyl terminal transmembrane domain deletion mutant (BNIP3ΔTM) have been described previously (Vande et al., 2000). Recombinant adenoviruses encoding the full-length BNIP3 or transmembrane deletion mutant are designated AdBNIP3 or AdBNIP3ΔTM, respectively, and generated as reported previously (Kirshenbaum et al., 1993).\nCell viability was determined using the vital dyes 2 μmol/L calcein acetoxymethyl ester (green) to determine the number of living cells and 2 μmol/L ethidium homodimer-1 (red) (Molecular Probes) to identify the number of dead cells (Kirshenbaum and Schneider, 1995). The number of green cells versus red cells was used to determine changes in cell viability (Moissac et al., 2000). Cells were analyzed from at least n=3 independent myocyte isolations counting ≧200 cells for each condition tested. Data are expressed as mean±SE percent reduction from control."}, "[8]": {"target": "T2, endogenous BNIP3 (Rattus norvegicus, UniProt A0ACM8Q210)", "T2 construct": "endogenous in cells; host or cells: neonatal rat ventricular myocytes, with or without adenovirus AdBNIP3ΔTM", "T2 sequence (A0ACM8Q210 1-187)": "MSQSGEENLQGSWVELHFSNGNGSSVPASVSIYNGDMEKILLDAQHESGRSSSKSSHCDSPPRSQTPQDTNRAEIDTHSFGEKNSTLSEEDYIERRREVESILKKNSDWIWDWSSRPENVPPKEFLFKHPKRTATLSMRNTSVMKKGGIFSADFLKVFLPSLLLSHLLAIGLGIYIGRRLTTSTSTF", "assay": "alkali extraction of mitochondria of hypoxic ventricular myocytes, BNIP3 western blot", "format": "cell-based", "source_text": "For detection of BNIP3 protein, total cardiac cell lysate was subjected to Western blot analysis using a murine antibody directed toward BNIP3 (Vande et al., 2000). To isolate mitochondria from ventricular myocytes, cells were washed in HIM buffer (200 mmol/L mannitol, 70 mmol/L sucrose, 10 mmol/L HEPES-KOH, 1 mmol/L EGTA, pH 7.5). The crude cell pellet was disrupted and resuspended in HIM buffer containing 2.0% wt/vol bovine serum albumin. The homogenate was ultracentrifuged to obtain the mitochondrial fraction and resuspended in 200 mmol/L sucrose, 10 mmol/L HEPES-KOH, 1 mmol/L ATP, 5 mmol/L sodium succinate, 0.08 mmol/L ADP, and 2 mmol/L K2HPO4. To assess whether BNIP3 integrates into mitochondrial membranes during hypoxia, mitochondria were subjected to alkali extraction using 0.01 mol/L Na2CO3 (pH 11.5); this will dissociate and solubilize proteins that are not membrane integrated (Vande et al, 2000; Goping et al, 1998). Antibodies directed toward the following Bcl-2 family members were obtained from respective suppliers: Bad (Transduction Laboratories Inc), Bax (Santa Cruz Inc), and Bak and Bcl-2 (Pharmingen). Bound proteins were visualized using enhanced chemiluminescence (ECL) reagents (Amersham Pharmacia Inc)."}},
  "data": [
    {"substance": "BNIP3ΔTM: carboxyl terminal transmembrane deletion mutant of BNIP3, deletion of amino acids 164 to 194 (amino acids 1-163)", "values": [
      {"measurement": "increase in Ac-DEVD-pNA substrate cleavage after transfection", "setting": "[1]", "result": "only marginal increases"},
      {"measurement": "DiOC6 / HE staining compared to untreated controls", "setting": "[2]", "result": "not affected"},
      {"measurement": "cytochrome c release (in words)", "setting": "[3]", "result": "no significant cytochrome c release"},
      {"measurement": "cytochrome c release (in words)", "setting": "[4]", "result": "only very low levels"},
      {"measurement": "cell death induced by BNIP3 (propidium iodide exclusion)", "setting": "[5]", "result": "background levels"},
      {"measurement": "neurons surviving glutamate toxicity", "setting": "[6]; glutamate 100 μM at day 9 in culture, 5 days after transfection", "result": 68, "unit": "%"},
      {"measurement": "BNIP3-positive neurons showing DNA condensation / DNA damage", "setting": "[6]; listed as BNIP^3-163", "result": 17, "unit": "%"},
      {"measurement": "BNIP3-positive neurons showing DNA condensation / DNA damage", "setting": "[6]; listed as pcDNA3-BNIP3^3-163", "result": 24, "unit": "%"},
      {"measurement": "toxicity to myocytes (viability versus control cells)", "setting": "[7]", "result": "not toxic"},
      {"measurement": "hypoxia-induced cell death of ventricular myocytes", "setting": "[7]; hypoxia 24 hours", "result": "markedly blunted"},
      {"measurement": "hypoxia-induced mitochondrial integration of the endogenous BNIP3 protein", "setting": "[8]", "result": "suppressed"}
    ]}
  ]
}
